Results published in patent US12133907B2, “Lipophilic third generation retinoid” (Actera Ingredients, Inc., priority 2021, dated 2024).
Like-named read-outs stand apart in the source and are kept apart here.

Columns and labels:
[1] = Adapalene oleyl ester dissolved in squalane (premix properties); format: physicochemical; settings: for physical form of the premix in squalane: 20% by weight in squalane
Text: The adapalene ester can be formulated in a premix composition with a non-polar lipophilic carrier at even higher concentrations of the adapalene ester. Typically, the concentration of the adapalene ester in the premix composition will be at least about 10% by weight, and the weight ratio of adapalene ester to lipophilic carrier is from about 1:9 to about 3:7. The premix composition may in the form of a homogeneous liquid solution or single phase amorphous solid.
Adapalene oleyl ester was dissolved in squalane at a concentration of 20% by weight. […] Rather, the entire premix mass formed a soft amorphous solid paste. The concentrated 20% adapalene oleyl ester in squalane remains a single homogenous soft solid paste with a melting temperature range of 30-35° C. This is a suitable temperature range for use in the manufacturing of finished cosmetics, which are usually manufactured at 30-80° C. This 20% composition can itself melt when in contact with the skin (33° C.). A combination of adapalene oleyl ester with squalane at high concentration, minimum 20%, provides an advantageous skin beauty treatment that can target acne prone skin with 20% or more adapalene ester, which is not possible with highly insoluble pure adapalene.

[2] = cited from earlier work
[3] = Dissolution of lauryl adapalene in MCT oil (caprylic/capric triglyceride) and persistence of the solution; format: physicochemical
Method: Approximately 5 grams of lauryl adapalene solids were dissolved in 95 grams of liquid MCT oil (caprylic/capric triglyceride), by heating the mixture to 60° C. for fifteen minutes.

SMILES: CCCCCCCC/C=C\CCCCCCCCOC(=O)c1ccc2cc(-c3ccc(OC)c(C45CC6CC(CC(C6)C4)C5)c3)ccc2c1 [Adapalene oleyl ester, adapalene oleyl ester]
- physical form of the premix in squalane [1]: formed a homogenous amorphous solid
- physical form of the premix in squalane ([1]; listed as adapalene C18-1 ester): forms a homogenous amorphous solid
- concentration dissolved in squalane ([1]; squalane premix): 20 % by weight

SMILES: COc1ccc(-c2ccc3cc(C(=O)O)ccc3c2)cc1C12CC3CC(CC(C3)C1)C2 [Adapalene, 6-(3-(1-adamantyl)-4-methoxyphenyl)-2-naphthoic acid]
- solubility in ethanol [2]: sparingly soluble
- solubility in oil or water [2]: not oil or water soluble
- solubility in oil or water ([2]; listed as adapalene): insoluble in oil or water

SMILES: CCCCCCCCCCCCOC(=O)c1ccc2cc(-c3ccc(OC)c(C45CC6CC(CC(C6)C4)C5)c3)ccc2c1 [lauryl adapalene]
- time the solution remained in liquid form ([3]; 5% wt/wt solution in MCT oil, room temperature): more than one week
- concentration of active agent dissolved in liquid MCT oil ([3]; 5 g solids in 95 g MCT oil, heated to 60° C. for fifteen minutes): 5 % wt/wt
